Values after ≈ are worked out from the molar mass of the structure shown. One block for each compound: values may come before it.
What was measured:
[1] = test system: H9 (acute lymphoblastic leukemia, ALL); assay: Leukemia cell growth inhibition, MTT, 72 h (Example 5); assay type: cell-based, human; conditions: Homo sapiens; 72 h, MTT
Summary of the method: (§1)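 Viability read by MTT after 72 h of compound treatment at 37 °C under 5% CO2; each well seeded with 6000 cells in 1640 medium plus 10% fetal bovine serum, compounds at several concentrations.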

[2] = test system: NB4 (acute promyelocytic leukemia, AML); assay: as above; assay type: cell-based, human; conditions: Homo sapiens; 72 h, MTT
Summary of the method: as §1

[3] = test system: Kasumi-1 (acute myeloid leukemia M2 type, AML-M2); assay: as above; assay type: cell-based, human; conditions: Homo sapiens, Kasumi 1
Summary of the method: as §1

[4] = test system: K562/adr (drug-resistant, chronic myeloid leukemia, CML); assay: as above; assay type: cell-based, human; conditions: Homo sapiens, K562/Adr; 72 h, MTT
Summary of the method: as §1

[5] = test system: Jurkat (acute lymphoblastic leukemia, ALL); assay: as above; assay type: cell-based, human; conditions: Homo sapiens, Jurkat; 72 h, MTT
Summary of the method: as §1

[6] = test system: human non-small cell lung cancer cell line A549 transplanted tumor; assay: Experiment 8-1: transplanted tumor of human lung cancer in nude mice; assay type: in vivo, BALB/c nude mice; conditions: for Mass of tumor / Tumor Inhibition rate (%): 50 mg/kg intragastric, 3 times a day, 10 days; for Mass of tumor: Day 27, M±SD; for Tumor Inhibition rate (%): Day 27, control = zero
Method: Cell lines: human non-small cell lung cancer cell line A549, from China Center for Type Culture Collection (CCTCC);
(§2) BS-TE-403 and BS-TE-333 (the present invention), and tetrandrine TTD from Jiangxi Jinfurong Pharmaceutical Co., Ltd. All compounds are administered at the dosage of 50 mg/kg weight each time.
Under sterile conditions, the above tumor cells in the logarithmic growth phase are collected and injected by subcutaneous injection in an amount of 5×10^6/0.2 ml/nude mice (cell viability>95%) into the right subaxillary of the nude mice, thus establishing a transplated tumor model of human non-small cell lung cancer in nude mice.
(§3) The experiments are divided into 4 groups: negative control group (solvent group), positive control group (lead compound TTD group), BS-TE-403 group and BS-TE-333 group.
(§4) The administrations are successive for 10 days.

[7] = test system: human breast cancer multidrug resistant lines MCF-7/ADR; conditions: 2.5 μmol/L tetrandrine; cited from earlier work
[8] = test system: RPMI8226 (multiple myeloma); assay: Multiple myeloma cell growth inhibition, MTT, 72 h (Example 6); assay type: cell-based, human; conditions: Homo sapiens, RPMI-8226; 72 h, MTT, RPMI8226
Summary of the method: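 Viability was read by MTT after 72 h of compound exposure at 37 °C, 5% CO2. Each well held 6000 RPMI8226 cells in 1640 medium containing 10% fetal bovine serum, with derivatives added at various concentrations.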

[9] = test system: U87 MG (malignant glioma cell); assay: Solid tumor cell growth inhibition, MTT, 72 h (Example 7); assay type: cell-based; conditions: Homo sapiens, U-87 MG
Summary of the method: (§5)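 MTT read-out of viable cells after 72 h compound treatment, reported as percent viability versus untreated control (100%). Cells seeded at 4000 per well, grown 24 h beforehand in 10% FBS DMEM high glucose, 37 °C, 5% CO2.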

[10] = test system: RKO (human colon adenocarcinoma cell); assay: as above; assay type: cell-based; conditions: Homo sapiens; 72 h, MTT, RKO
Summary of the method: as §5

[11] = test system: SK-OV-3 (ovarian cancer cell); assay: as above; assay type: cell-based; conditions: Homo sapiens
Summary of the method: as §5

[12] = test system: Becap37 (human breast cancer cell); assay: as above; assay type: cell-based; conditions: Homo sapiens; 72 h, MTT, Becap-37
Summary of the method: as §5

[13] = test system: MGC 803 (human gastric cancer cell); assay: as above; assay type: cell-based; conditions: Homo sapiens
Summary of the method: as §5

A549 (human lung cancer) = assay: as above; assay type: cell-based; conditions: Homo sapiens; 72 h, MTT, A549
Summary of the method: as §5

[14] = test system: Hela (human cervical cancer cell); assay: as above; assay type: cell-based; conditions: Homo sapiens; 72 h, MTT, Hela
Summary of the method: as §5

[15] = test system: Huh7 (human liver cancer cell); assay: as above; assay type: cell-based; conditions: Homo sapiens; 72 h, MTT, Huh-7
Summary of the method: as §5

[16] = test system: CNE (nasopharyngeal carcinoma cell); assay: as above; assay type: cell-based; conditions: Homo sapiens
Summary of the method: as §5

[17] = test system: CaES-17 (esophageal cancer cell); assay: as above; assay type: cell-based, human; conditions: Homo sapiens, CaEs17; 72 h, MTT, CAES-17
Summary of the method: as §5

[18] = test system: Hep-2 (laryngeal carcinoma); assay: as above; assay type: cell-based, human; conditions: Homo sapiens; 72 h, MTT, Hep 2
Summary of the method: as §5

[19] = test system: PANC-1 (pancreatic cancer); assay: as above; assay type: cell-based, human; conditions: Homo sapiens; 72 h, MTT, PANC-1
Summary of the method: as §5

MG63 (osteosarcoma) = assay: as above; assay type: cell-based, human; conditions: Homo sapiens; 72 h, MTT, MG-63
Summary of the method: as §5

PC-3 (prostate cancer) = assay: as above; assay type: cell-based, human; conditions: Homo sapiens; 72 h, MTT, PC-3
Summary of the method: as §5

[20] = Experiment 8-1: body weight of nude mice, preliminary toxicity; assay type: in vivo, BALB/c nude mice; conditions: for Weight (g) Final: 50 mg/kg intragastric, 3 times a day, 10 days, final body weight; for Weight (g) Final / Weight (g) Initial: M±SD; for Weight (g) Initial: nude mice body weight before administration
Method: as §2, §3, §4

[21] = test system: drug-resistant lung cancer cell GLC-82/ADR; conditions: while adriamycin is used, without tetrandrine; cited from earlier work

IC50 [1]: 2.69 µg/mL (≈ 4.32 µM)
IC90 [1]: 6.4 µg/mL (≈ 10.3 µM)
IC50 [2]: 1.6 µg/mL (≈ 2.57 µM)
IC90 [2]: 4.1 µg/mL (≈ 6.58 µM)
IC50 [3]: 1.69 µg/mL (≈ 2.71 µM)
IC90 [3]: 8.24 µg/mL (≈ 13.2 µM)
IC50 [4]: 0.44 µg/mL (≈ 0.707 µM)
IC90 [4]: 2.14 µg/mL (≈ 3.44 µM)
IC50 [5]: 2.09 µg/mL (≈ 3.36 µM)
IC90 [5]: 9.85 µg/mL (≈ 15.8 µM)
IC50 [8]: 0.37 µg/mL (≈ 0.594 µM)
IC90 [8]: 2.54 µg/mL (≈ 4.08 µM)
IC50 [9]: 0.66 µg/mL (≈ 1.06 µM)
IC90 [9]: 3.58 µg/mL (≈ 5.75 µM)
IC50 [10]: 2.72 µg/mL (≈ 4.37 µM)
IC90 [10]: 6.3 µg/mL (≈ 10.1 µM)
IC50 [11]: 9.04 µg/mL (≈ 14.5 µM)
IC90 [11]: > 16 µg/mL
IC50 [12]: 6.9 µg/mL (≈ 11.1 µM)
IC90 [12]: 15 µg/mL (≈ 24.1 µM)
IC50 [13]: 1.97 µg/mL (≈ 3.16 µM)
IC90 [13]: 7.41 µg/mL (≈ 11.9 µM)
IC50 (A549 (human lung cancer)): 2.9 µg/mL (≈ 4.66 µM)
IC90 (A549 (human lung cancer)): 12.5 µg/mL (≈ 20.1 µM)
IC50 [14]: 4.05 µg/mL (≈ 6.5 µM)
IC90 [14]: 9.24 µg/mL (≈ 14.8 µM)
IC50 [15]: 5.05 µg/mL (≈ 8.11 µM)
IC90 [15]: 7.81 µg/mL (≈ 12.5 µM)
IC50 [16]: 3.3 µg/mL (≈ 5.3 µM)
IC90 [16]: 6.2 µg/mL (≈ 9.96 µM)
IC50 [17]: 8.34 µg/mL (≈ 13.4 µM)
IC90 [17]: > 16 µg/mL
IC50 [18]: 3.88 µg/mL (≈ 6.23 µM)
IC90 [18]: 11.9 µg/mL (≈ 19 µM)
IC50 [19]: 3.16 µg/mL (≈ 5.07 µM)
IC90 [19]: 7.02 µg/mL (≈ 11.3 µM)
IC50 (MG63 (osteosarcoma)): 1.9 µg/mL (≈ 3.05 µM)
IC90 (MG63 (osteosarcoma)): 3.7 µg/mL (≈ 5.94 µM)
IC50 (PC-3 (prostate cancer)): 6.01 µg/mL (≈ 9.65 µM)
IC90 (PC-3 (prostate cancer)): 10.8 µg/mL (≈ 17.3 µM)
SMILES: COc1ccc2cc1Oc1ccc(cc1)C[C@H]1c3cc(c(OC)cc3CCN1C)Oc1c(OC)c(OC)cc3c1[C@H](C2)N(C)CC3 [TTD, 6,6′,7,12-tetramethoxy-2,2′dimethylberbamine, reference compound]
Mass of tumor [6]: 799.00 ± 349.09 mg
Tumor Inhibition rate (%) [6]: 13.95%
increase of adriamycin cytotoxicity on drug-resistant tumors [7]: 20.4 times
Weight (g) Final [20]: 19.10 ± 2.02 g
Weight (g) Initial [20]: 22.40 ± 0.26 g

SMILES: COc1cccc2c1C(=O)c1c(O)c3c(c(O)c1C2=O)C[C@@](O)(C(=O)CO)C[C@@H]3O[C@H]1C[C@H](N)[C@H](O)[C@H](C)O1 [adriamycin]
drug-resistance index [21]: 5.43

SMILES: COc1ccc2cc1Oc1ccc(cc1)C[C@H]1c3cc(c(OC)cc3CCN1C)Oc1c(OC)c(OC)c(CN3CCN(C(C)C)CC3)c3c1[C@H](C2)N(C)CC3 [BS-TE-333]
IC50 [1]: 1.14 µg/mL (≈ 1.49 µM)
IC90 [1]: 1.84 µg/mL (≈ 2.41 µM)
IC50 [2]: 0.48 µg/mL (≈ 0.629 µM)
IC90 [2]: 1 µg/mL (≈ 1.31 µM)
IC50 [3]: 0.77 µg/mL (≈ 1.01 µM)
IC90 [3]: 3.29 µg/mL (≈ 4.31 µM)
IC50 [4]: 0.43 µg/mL (≈ 0.564 µM)
IC90 [4]: 1.91 µg/mL (≈ 2.5 µM)
IC50 [5]: 0.81 µg/mL (≈ 1.06 µM)
IC90 [5]: 4.18 µg/mL (≈ 5.48 µM)
effect on transplanted tumor of human lung cancer in nude mice (FIG. 2) ([6]; 50 mg/kg): exhibit inhibiting effects
Mass of tumor [6]: 639.25 ± 285.20 mg
Tumor Inhibition rate (%) [6]: 31.15%
IC50 [8]: 0.06 µg/mL (≈ 0.0786 µM)
IC90 [8]: 2.34 µg/mL (≈ 3.07 µM)
IC50 [9]: 0.5 µg/mL (≈ 0.655 µM)
IC90 [9]: 1.51 µg/mL (≈ 1.98 µM)
IC50 [10]: 0.54 µg/mL (≈ 0.708 µM)
IC90 [10]: 1.74 µg/mL (≈ 2.28 µM)
IC50 [11]: 3.04 µg/mL (≈ 3.98 µM)
IC90 [11]: > 16 µg/mL
IC50 [12]: 1 µg/mL (≈ 1.31 µM)
IC90 [12]: 4.5 µg/mL (≈ 5.9 µM)
IC50 [13]: 0.84 µg/mL (≈ 1.1 µM)
IC90 [13]: 5.3 µg/mL (≈ 6.95 µM)
IC50 (A549 (human lung cancer)): 1.5 µg/mL (≈ 1.97 µM)
IC90 (A549 (human lung cancer)): 11 µg/mL (≈ 14.4 µM)
IC50 [14]: 1.69 µg/mL (≈ 2.21 µM)
IC90 [14]: 5 µg/mL (≈ 6.55 µM)
IC50 [15]: 1.64 µg/mL (≈ 2.15 µM)
IC90 [15]: 2.45 µg/mL (≈ 3.21 µM)
IC50 [16]: 2.6 µg/mL (≈ 3.41 µM)
IC90 [16]: 5.6 µg/mL (≈ 7.34 µM)
IC50 [17]: 2.35 µg/mL (≈ 3.08 µM)
IC90 [17]: 17.1 µg/mL (≈ 22.4 µM)
IC50 [18]: 1.72 µg/mL (≈ 2.25 µM)
IC90 [18]: 9.69 µg/mL (≈ 12.7 µM)
IC50 [19]: 1.69 µg/mL (≈ 2.21 µM)
IC90 [19]: 9.93 µg/mL (≈ 13 µM)
IC50 (MG63 (osteosarcoma)): 0.7 µg/mL (≈ 0.917 µM)
IC90 (MG63 (osteosarcoma)): 1.3 µg/mL (≈ 1.7 µM)
IC50 (PC-3 (prostate cancer)): 1.85 µg/mL (≈ 2.42 µM)
IC90 (PC-3 (prostate cancer)): 2.9 µg/mL (≈ 3.8 µM)
toxic or side effect under such a dosage ([20]; 50 mg/kg): has caused some toxic and side effect
weight loss as compared with the weight in the control group (FIG. 1) ([20]; 50 mg/kg): relatively obvious
Weight (g) Final [20]: 16.95 ± 2.30 g
Weight (g) Initial [20]: 21.3 ± 0.24 g
